Publication PMC6271703, “Absorbability, Mechanism and Structure-Property Relationship of Three Phenolic Acids from the Flowers of Trollius chinensis” (Molecules, 2014)
Converted amounts (≈) assume the structure as drawn.

Experiments:
[1] = Caco-2 cell monolayer transport experiment; assay type: in vitro ADME; details: human; for Papp A→B at 90 min, 100 μmol/L: incubation up to 90 min, n = 3
Protocol: To facilitate the cells’ differentiation and formation of a confluent monolayer, Caco-2 cells were seeded at a density of 1.0 × 10^5 cells/cm^2 on a 12-well Transwell insert filter. The inserts were fed with culture medium at 2 days intervals in the first week, and then at daily intervals for the AP side and 2 days intervals for the BL side until they were used for the transport experiment 21 days after seeding. The AP and BL sides contained 0.5 mL and 1.5 mL of culture medium, respectively. […] The cell inserts were used after the resistance reached above 600 Ω∙cm^2.
On day 21, transport study was initiated by careful removal of the culture medium from AP and BL sides. Caco-2 monolayers were rinsed twice with pre-warmed HBSS and were incubated by pre-warmed HBSS for 30 min at 37 °C. PA, GA and TS were dissolved in DMSO, and diluted to the concentration of 25, 50 and 100 μmol/L with HBSS. The final DMSO concentration was less than 1%. Test compounds were added to the AP side (0.5 mL) or BL side (1.5 mL) of the inserts, while the receiving chamber contained the corresponding volume of HBSS. […] At 30, 60, 90, 120, 150 and 180 min, 0.2 mL of solutions from BL side or AP side were collected, and replaced with an equal volume of HBSS. Samples were frozen immediately and stored below −20 °C before analysis. Upon completion of all permeation experiments, TEER values were measured to ensure that cell monolayer integrity and viability had not been adversely affected by experimental conditions.
(§1) The cell survival rate (%) was calculated using the equation survival rate= A/A0 × 100, wherein A was the average absorbance value of treatment group; A0 was the average absorbance value of the blank control group. The Papp was determined in this study by HPLC quantification of the compounds in the receiver chamber after transport across the Caco-2 monolayer. The calculation was described by the equation Papp = (dQ/dt) × (1/A) × (1/C0), wherein dQ/dt was the rate of appearance of the test compound on the receiver compartment (μmol/s); C0 was the initial test compound concentration on the donor compartment (μmol/mL); and A was the surface area of Caco-2 monolayer (cm^2).
The percentage transported (%) was calculated using the equation % Transported = QB/(CS × VD) × 100, wherein QB was the amount of compounds in the receiver compartment(μmol); CS was the donor concentration of test compounds (μmol/L); VD was the volume of the donor compartment (L). The transport rate (μmol/h/cm^2) was calculated using the equation transport rate = QB/(t × A), wherein QB was the amount of compounds in the receiver compartment(μmol); t was the incubating time (h); A was the surface area of Caco-2 monolayer (cm^2).

Caco-2 cells = assay: MTT assay on Caco-2 cells; assay type: cell-based, human; details: for Survival Rate: 4 h, n = 4
Protocol: Caco-2 cells at logarithmic growth phase were seeded onto 96-well plates and incubated at 37 °C in culture hood. The culture medium was removed after cells formed a full layer, and each 100 μL of HBSS solution (negative control group) and drug-containing HBSS solution (three phenolic acids at the concentrations of 25, 50 and 100 μmol/L, respectively) was added to each well. When the plates were cultured for 4 h, HBSS solution was completely transferred out and each 100 μL of MTT solution (0.5 mg/mL) was added to each well. MTT solution was removed carefully after 4 hours of incubation at 37 °C, and each 150 μL of DMSO was added to each well, then culture vessels were agitated on an orbital shaker for 10 min and absorbance was read on a microplate reader at 570 nm.
as §1

[2] = Caco-2 cell monolayer transport experiment; assay type: in vitro ADME; details: human; for Papp A→B at 90 min, 25 μmol/L / Papp B→A at 90 min, 25 μmol/L / Papp A→B at 90 min, 50 μmol/L / Papp B→A at 90 min, 50 μmol/L / Papp B→A at 90 min, 100 μmol/L / Papp A→B at 90 min / Papp B→A at 90 min: incubation up to 90 min; for Papp A→B at 90 min, 25 μmol/L / Papp B→A at 90 min, 25 μmol/L / Papp A→B at 90 min, 50 μmol/L / Papp B→A at 90 min, 50 μmol/L / Papp B→A at 90 min, 100 μmol/L: n = 3; for Papp A→B at 90 min / Papp B→A at 90 min: average of 25, 50 and 100 μmol/L; for Papp at 90 min: monitored for 90 min, read-out: bidirectional Papp level (AP to BL and BL to AP)
influenza A = tested on: influenza A; set-up: method as in ref [7] = [7]; 7. Wang R.F. The Constituents and Bioactivities of Jinlianhua and Pangdahai Doctoral Thesis Peking University Bejing, China 2003; details: antiviral, ref [7]; cited from earlier work
Pseudomonas aeruginosa = tested on: Pseudomonas aeruginosa; set-up: method as in PMID 11849843; details: ref [4],[5]; cited from earlier work
Staphylococcus aureus = tested on: Staphylococcus aureus; set-up: method as in PMID 11849843; details: ref [4],[5]; cited from earlier work
Para 3 = tested on: Para 3; set-up: method as in ref [6] = [6]; 6. Li Q.F. Feng S.Q. Li Y.L. Cen Y.Z. Yang Y.T. Wang L.Y. Study on the antibacterial and antiviral activity compositions of Trollius chinensis Bunge J. Zhejiang Univ. (Sci. Ed.) 2004 31 412 415; details: antiviral, ref [6]; cited from earlier work
Streptococcus pneumonia = tested on: Streptococcus pneumonia; set-up: method as in ref [7] = [7]; 7. Wang R.F. The Constituents and Bioactivities of Jinlianhua and Pangdahai Doctoral Thesis Peking University Bejing, China 2003; details: ref [7]; cited from earlier work

Compound | Papp A→B at 90 min, 100 μmol/L [1] [nm/s] | Survival Rate (Caco-2 cells; 25 μmol/L) [%] | Survival Rate (Caco-2 cells; 50 μmol/L) [%] | Survival Rate (Caco-2 cells; 100 μmol/L) [%] | Papp A→B at 90 min, 25 μmol/L [2] [nm/s] | Papp B→A at 90 min, 25 μmol/L [2] [nm/s] | Papp A→B at 90 min, 50 μmol/L [2] [nm/s] | Papp B→A at 90 min, 50 μmol/L [2] [nm/s] | Papp B→A at 90 min, 100 μmol/L [2] [nm/s] | Papp A→B at 90 min [2] [nm/s] | Papp B→A at 90 min [2] [nm/s] | Papp at 90 min [2] [nm/s] | IC50 (influenza A) [mg/L] | MIC (Pseudomonas aeruginosa) [mg/L] | MIC (Staphylococcus aureus) [mg/L] | IC50 (Para 3) [mg/L] | Survival rate of Caco-2 cells (Caco-2 cells; at different concentrations (25, 50, 100 μmol/L)) | MIC (Streptococcus pneumonia) [mg/L] | Papp at 180 min ([1]; standard markers added to the AP side, model validation, read-out: Papp of reference controls) [nm/s]
COc1cc(C(=O)O)cc2c1OC(C)(C)CC2 [GA, 8-methoxy-2,2-dimethylchroman-6-carboxylic acid] | 170 ± 12 | 107.1 ± 5.7 | 118.9 ± 13.7 | 123.6 ± 6.2 | 214 ± 20 | 221 ± 8 | 159 ± 2 | 200 ± 7 | 194 ± 10 | 181 ± 11 | 205 ± 8 | ~100 | 42.1 (≈ 178 µM) | – | – | – | – | – | –
COc1cc(C(=O)O)cc(CC=C(C)C)c1O [PA, 4-hydroxy-3-methoxy-5-(3-methylbut-2-en-1-yl)benzoic acid] | 296 ± 11 | 118.8 ± 11.6 | 110.5 ± 3.8 | 124.5 ± 2.2 | 317 ± 4 | 254 ± 22 | 280 ± 13 | 256 ± 19 | 259 ± 14 | 298 ± 13 | 256 ± 18 | ~100 | – | 16 (≈ 67.7 µM) | 200 (≈ 846 µM) | 184.2 (≈ 780 µM) | – | – | –
CC(=O)O[C@H]1C(=O)[C@@]2(C)[C@H]([C@H](OC(=O)c3ccccc3)[C@]3(O)C[C@H](OC(=O)[C@H](O)[C@@H](NC(=O)c4ccccc4)c4ccccc4)C(C)=C1C3(C)C)[C@]1(OC(C)=O)CO[C@@H]1C[C@@H]2O [Paclitaxel, reference compound] | – | 67.3 ± 8.2 | 45.5 ± 6.7 | 37.4 ± 3.5 | – | – | – | – | – | – | – | – | – | – | – | – | below 70% | – | –
COc1cc(C(=O)O)cc(CC=C(C)C)c1O[C@@H]1O[C@H](CO)[C@@H](O)[C@H](O)[C@H]1O [TS, 3-methoxy-5-(3-methylbut-2-en-1-yl)-4-(((2S,3R,4S,5S,6R)-3,4,5-trihydroxy-6-(hydroxymethyl)tetrahydro-2H-pyran-2-yl)oxy)benzoic acid] | 77 ± 9 | 98.9 ± 4.3 | 107.3 ± 7.0 | 118.2 ± 8.1 | 86 ± 16 | 86 ± 4 | 106 ± 3 | 108 ± 6 | 80 ± 3 | 89 ± 9 | 91 ± 4 | ~100 | – | – | – | – | – | 128 (≈ 321 µM) | –
CC(C)NCC(O)COc1cccc2ccccc12 (stereo not shown) [propranolol, reference compound] | – | – | – | – | – | – | – | – | – | – | – | – | – | – | – | – | – | – | 124
